Assay results as given in patent US20080145313A1, “Compositions and Methods for the Treatment and Prevention of Neoplastic Disorders” (Genesis Research & Development Corporation Limited, priority 2006, published 2008).

system: A549 cells; assay: Growth inhibition of siRNA-transfected A549 cells, SYBR Green I DNA content; format: cell-based, human; settings: 10 nM siRNA; DNA content 96 hours after transfection
Procedure: A549 cells (human lung cancer cell line; ATCC No. CCL-185), SK-MeI-5 cells (human melanoma cell line; ATCC No. HTB-70), MCF-7 cells (human adenocarcinoma cell line; ATCC No. HTB-22), HCT-116 cells (colorectal carcinoma; ATCC CCL-247) and HCT-116 p53 null cells (derived from ATCC No. CCL-247; Bunz et al., Science 282:1497-1501, 1998) were cultured in RPMI 1640 medium with 10% v/v heat-inactivated fetal calf serum (FCS). Cells were seeded at a density of 5×10^4 cells/cm^2 in multi-well tissue culture plates. Sequences of Stealth™ siRNA duplexes (Invitrogen) targeting human ribonucleotide reductase subunit 1 (SEQ ID NO: 22) and subunit 2 (SEQ ID NO; 38) are given in SEQ ID NO: 4830-4832 (DNA), and SEQ ID NO: 5136-5138 (RNA) for RRM1, and SEQ ID NO: 5306-5308 (DNA), and SEQ ID NO: 5303-5305 (RNA) for RRM2. siRNAs were transfected at different concentrations into cells using Lipofectamine™ RNAiMAX transfection reagent (Invitrogen). Non-specific siRNA (SEQ ID NO: 4804 and 4805 (DNA), and SEQ ID NO: 5301 and 5302 (RNA)) were used as controls. The cellular DNA content was measured using a SYBR Green I-based fluorometric assay at 24, 48, 72 and 96 hours after transfection (120 hours for the MCF-7 cells), as follows. At the indicated time points following reverse transfection, cells were harvested and frozen at −80° C. overnight. Cells were thawed and cell lysis buffer (phosphate-buffered saline (PBS) containing 1% Triton X-100, pH 7) and SYBR Green I (1:10^5 V/V; Invitrogen) was added to the wells and incubated overnight in the dark at 4° C.
The following day, cell lysates were mixed thoroughly, and DNA fluorescence was measured with a Wallac Victor^2 plate reader (Turku, Finland) set at an excitation frequency of 485 nm and measuring emission at 535 nm.
To determine the duration of the knock-down effect of RRM1-targeting siRNA, A549 cells were reverse transfected with 1 or 10 nM RRM1-3 (SEQ ID NO: 4832 (DNA, and SEQ ID NO: 5138 (RNA)) or control siRNA (SEQ ID NO: 4804 (DNA), and SEQ ID NO: 5301 (RNA)), and growth followed over time. Growth inhibition was measured daily as described above for up to ten days. RRM1-3-mediated RRM1 silencing inhibited growth for at least 10 days post-transfection at both 1 and 10 nM (FIG. 11).
siRNA-mediated inhibition of cancer cell growth was determined in A549 cells as follows. A549 cells (human lung cancer cell line; ATCC No. CCL-185) were cultured in RPMI 1640 medium with 10% v/v heat-inactivated fetal calf serum. Cells were seeded at a density of 5×10^3 cells/cm^2 in multi-well tissue culture plates. Stealth™ siRNA duplexes (Invitrogen) targeting genes involved in cancer energy and metabolism pathways and listed in Table 9, were transfected at 10 nM into cells using Lipofectamine™ RNAiMAX transfection reagent (Invitrogen). Non-specific siRNA (SEQ ID NO: 4804 and 4805 (DNA), and SEQ ID NO: 5301 and 5302 (RNA)) were used as controls. The cellular DNA content was measured using a SYBR Green I-based fluorometric assay at 96 hours after transfection. The cells were harvested and frozen at −80° C. overnight. Cells were thawed and cell lysis buffer (phosphate-buffered saline (PBS) containing 1% Triton X-100, pH 7) and SYBR Green I (1:10^5 v/v; Invitrogen) was added to the wells and incubated overnight in the dark at 4° C. The following day, cell lysates were mixed thoroughly, and DNA fluorescence was measured with a Wallac Victor^2 plate reader (Turku, Finland) set at an excitation frequency of 485 nm and measuring emission at 535 nm.
Three different siRNAs were tested for each target gene. The average fluorescence units from three replicate wells, representing the amount of DNA per well, were used to determine the effect on growth inhibition. The results are given in Table 10 (energy and metabolism gene targets) and Table 11 (transporter gene targets).
siRNA-mediated RNAi was also determined on a panel of different cell lines. […]

Substance | Growth Inhibition in A549 cells
SEQ ID NO: 4845: siRNA targeting FLAD1 (chain 1 TTTGAGTGGAACTGAACAGCTGGGT; chain 2 UUUGAGUGGAACUGAACAGCUGGGU; chemistry not given here; one strand in two spellings) | + (inhibits by at least 50%)
SEQ ID NO: 4858: siRNA targeting ACLY (chain 1 TTCTTGATCAGCTTTCTCGTGAGGG; chain 2 UUCUUGAUCAGCUUUCUCGUGAGGG; Both strands are one antisense strand in DNA/RNA notation, chemistry not given here, further chemistry not given here; one strand in two spellings) | − (no growth inhibition with any siRNA)
SEQ ID NO: 4851: siRNA targeting ATP5B (chain 1 TTTCCATGAACTCTGGAGCCTCAGC; chain 2 UUUCCAUGAACUCUGGAGCCUCAGC; Both strands are one antisense strand in DNA/RNA notation, chemistry not given here, further chemistry not given here; one strand in two spellings) | − (no growth inhibition with any siRNA)
SEQ ID NO: 4989: siRNA targeting TK1 (chain 1 GCGTGGCTGTCATAGGCATCGACGA; chain 2 GCGUGGCUGUCAUAGGCAUCGACGA; chemistry not given here; one strand in two spellings) | − (no growth inhibition with any siRNA)
SEQ ID NO: 4865: siRNA targeting SLC25A6 (ANT3) (chain 1 TTTGCGCCCGAACTGCATCATCATG; chain 2 UUUGCGCCCGAACUGCAUCAUCAUG; Both strands are one antisense strand in DNA/RNA notation, chemistry not given here, further chemistry not given here; one strand in two spellings) | − (no growth inhibition with any siRNA)
SEQ ID NO: 4807: siRNA targeting ARNT (HIF-1β) (chain 1 TGCACCTGATCATAGAGTGTGCTGC; chain 2 UGCACCUGAUCAUAGAGUGUGCUGC; chemistry not given here; one strand in two spellings) | + (inhibits by at least 50%)
SEQ ID NO: 4988: siRNA targeting DCK (chain 1 GCAAGGCATTCCTCTTGAATATTTA; chain 2 GCAAGGCAUUCCUCUUGAAUAUUUA; Both strands are one antisense strand in DNA/RNA notation, chemistry not given here, further chemistry not given here; one strand in two spellings) | − (no growth inhibition with any siRNA)
SEQ ID NO: 4823: siRNA targeting PRPS1 (chain 1 TCAAGATGGCATAAACTCTGGTGGC; chain 2 UCAAGAUGGCAUAAACUCUGGUGGC; chemistry not given here; one strand in two spellings) | + (inhibits by at least 50%)
SEQ ID NO: 4812: siRNA targeting HK-II (chain 1 ATACTGGTCAACCTTCTGCACTTGG; chain 2 AUACUGGUCAACCUUCUGCACUUGG; chemistry not given here; one strand in two spellings) | − (no growth inhibition with any siRNA)
SEQ ID NO: 4861: siRNA targeting SLC25A5 (ANT2) (chain 1 ATTTGTAGATCTTAACCAGGCAGTC; chain 2 AUUUGUAGAUCUUAACCAGGCAGUC; Both strands are one antisense strand in DNA/RNA notation, chemistry not given here, further chemistry not given here; one strand in two spellings) | − (no growth inhibition with any siRNA)
SEQ ID NO: 4994: siRNA targeting TK2 (chain 1 CCTGAGACTTGTTACCAGAGGTTAA; chain 2 CCUGAGACUUGUUACCAGAGGUUAA; chemistry not given here; one strand in two spellings) | − (no growth inhibition with any siRNA)
SEQ ID NO: 4847: siRNA targeting FLAD1 (chain 1 TGCAATGGTGGCTACCTCATCAGGT; chain 2 UGCAAUGGUGGCUACCUCAUCAGGU; chemistry not given here; one strand in two spellings) | − (no growth inhibition with any siRNA)
SEQ ID NO: 4817: siRNA targeting LDHA/5 (chain 1 TATACTCTCTGCCAAATCTGCTACA; chain 2 UAUACUCUCUGCCAAAUCUGCUACA; chemistry not given here; one strand in two spellings) | − (no growth inhibition with any siRNA)
SEQ ID NO: 4826: siRNA targeting CPS1 (chain 1 TTCCCAAGCATGGTACCCTTATCCC; chain 2 UUCCCAAGCAUGGUACCCUUAUCCC; chemistry not given here; one strand in two spellings) | − (no growth inhibition with any siRNA)
SEQ ID NO: 4880: siRNA targeting IMPDH2 (chain 1 TCCCTGTTCATATTTCTTCACTTTC; chain 2 UCCCUGUUCAUAUUUCUUCACUUUC; Both strands are one antisense strand in DNA/RNA notation, chemistry not given here, further chemistry not given here; one strand in two spellings) | + (inhibits by at least 50%)
SEQ ID NO: 4856: siRNA targeting FASN (chain 1 CTTCGATGTATTCAAATGACTCAGG; chain 2 CUUCGAUGUAUUCAAAUGACUCAGG; Both strands are one antisense strand in DNA/RNA notation, chemistry not given here, further chemistry not given here; one strand in two spellings) | − (no growth inhibition with any siRNA)

same assay, conditions: A549 cells, 10 nM siRNA, DNA content 96 hours after transfection, transporter gene targets

Substance | Growth Inhibition in A549 cells by 10 nM siRNA
SEQ ID NO: 4942: siRNA targeting ATP2B2 (PMCA2) (chain 1 TTCCAGGTCGGTGTCATCAATGAGG; chain 2 UUCCAGGUCGGUGUCAUCAAUGAGG; chemistry not given here; one strand in two spellings) | − (no growth inhibition)
SEQ ID NO: 4949: siRNA targeting ATP6V1A (chain 1 TATAAATAGAGGCTTCTCTAGCAGC; chain 2 UAUAAAUAGAGGCUUCUCUAGCAGC; chemistry not given here; one strand in two spellings) | − (no growth inhibition)
SEQ ID NO: 4943: siRNA targeting ATP2B3 (PMCA3) (chain 1 AAACGTCTCAATCACAAAGTAGAGG; chain 2 AAACGUCUCAAUCACAAAGUAGAGG; chemistry not given here; one strand in two spellings) | − (no growth inhibition)
